Laboratory results taken from patent US11084790B2, “Insoluble complex or solvate thereof, pharmaceutical composition and use thereof” (Fruithy Holdings Limited, priority 2017, dated 2021).

Experiment: Test on the solubility in a simulated body fluid
Format: physicochemical
Settings: for Compound concentration: Bupivacaine / Compound concentration: DBTA / Compound concentration: DTTA / Compound concentration: Pamoic acid / solubility: 0.01 M PBS pH 7.4, 37° C.; for stability of the suspension (ratio between acid radical and basic group) / solubility: simulated body fluid
Experimental: Test on the Solubility in a Simulated Body Fluid
The concentration of the drug dissolved in the PBS buffered solution was determined with an HPLC-a method.

SMILES: CCCCN1CCCCC1C(=O)Nc1c(C)cccc1C.O=C(OC(C(=O)O)C(OC(=O)c1ccccc1)C(=O)O)c1ccccc1 (stereo not shown) [Preparation Example 1, mono(bupivacaine) dibenzoyl tartarate]
- Compound concentration: Bupivacaine (5 min): 4884.6 µM
- Compound concentration: DBTA (5 min): 4992 µM
- Compound concentration: Bupivacaine (15 min): 6987.2 µM
- Compound concentration: DBTA (15 min): 7107.7 µM
- Compound concentration: Bupivacaine (30 min): 7755.2 µM
- Compound concentration: DBTA (30 min): 7866.6 µM
- Compound concentration: Bupivacaine (1 h): 8196 µM
- Compound concentration: DBTA (1 h): 8284.6 µM
- Compound concentration: Bupivacaine (2 h): 7911.7 µM
- Compound concentration: DBTA (2 h): 8015.5 µM
- Compound concentration: Bupivacaine (6 h): 7006.1 µM
- Compound concentration: DBTA (6 h): 7590.5 µM
- Compound concentration: Bupivacaine (24 h): 5767.9 µM
- Compound concentration: DBTA (24 h): 7303.7 µM

SMILES: CCCCN1CCCCC1C(=O)Nc1c(C)cccc1C.Cc1ccc(C(=O)OC(C(=O)O)C(OC(=O)c2ccc(C)cc2)C(=O)O)cc1 (stereo not shown) [Preparation Example 3, mono(bupivacaine) di-p-toluoyl tartarate]
- Compound concentration: Bupivacaine (5 min): 7947.6 µM
- Compound concentration: DTTA (5 min): 7316.3 µM
- Compound concentration: Bupivacaine (15 min): 7862.6 µM
- Compound concentration: DTTA (15 min): 7244.6 µM
- Compound concentration: Bupivacaine (30 min): 7662.2 µM
- Compound concentration: DTTA (30 min): 7012.2 µM
- Compound concentration: Bupivacaine (1 h): 7519 µM
- Compound concentration: DTTA (1 h): 6900.6 µM
- Compound concentration: Bupivacaine (2 h): 7719.3 µM
- Compound concentration: DTTA (2 h): 7048.1 µM
- Compound concentration: Bupivacaine (6 h): 7883.2 µM
- Compound concentration: DTTA (6 h): 7211.7 µM
- Compound concentration: Bupivacaine (24 h): 7917.8 µM
- Compound concentration: DTTA (24 h): 7249 µM

SMILES: CC1(C)C2CCC1(CS(=O)(=O)O)C(=O)C2.CCCCN1CCCCC1C(=O)Nc1c(C)cccc1C (stereo not shown) [Preparation Example 8, bupivacaine camphorsulfonate]
- Compound concentration: Bupivacaine (5 min): 47678.3 µM
- Compound concentration: Bupivacaine (15 min): 57125.4 µM
- Compound concentration: Bupivacaine (30 min): 68314.9 µM
- Compound concentration: Bupivacaine (1 h): 68195.8 µM
- Compound concentration: Bupivacaine (2 h): 68902.6 µM
- Compound concentration: Bupivacaine (6 h): 71253.9 µM
- Compound concentration: Bupivacaine (24 h): 66020 µM

SMILES: CCCCN1CCCCC1C(=O)Nc1c(C)cccc1C.CCCCN1CCCCC1C(=O)Nc1c(C)cccc1C.O=C(O)c1cc2ccccc2c(Cc2c(O)c(C(=O)O)cc3ccccc23)c1O [Preparation Example 12, bis(bupivacaine) pamoate]
- Compound concentration: Bupivacaine (5 min): 147.5 µM
- Compound concentration: Pamoic acid (5 min): 73.6 µM
- Compound concentration: Bupivacaine (15 min): 210.1 µM
- Compound concentration: Pamoic acid (15 min): 107 µM
- Compound concentration: Bupivacaine (30 min): 247.4 µM
- Compound concentration: Pamoic acid (30 min): 127.4 µM
- Compound concentration: Bupivacaine (1 h): 267.2 µM
- Compound concentration: Pamoic acid (1 h): 137.5 µM
- Compound concentration: Bupivacaine (2 h): 280.2 µM
- Compound concentration: Pamoic acid (2 h): 140 µM
- Compound concentration: Bupivacaine (6 h): 290.8 µM
- Compound concentration: Pamoic acid (6 h): 149.7 µM
- Compound concentration: Bupivacaine (24 h): 284.8 µM
- Compound concentration: Pamoic acid (24 h): 142.9 µM
- stability of the suspension (ratio between acid radical and basic group): stable
- solubility: about 0.3 mM

SMILES: CCCCN1CCCCC1C(=O)Nc1c(C)cccc1C.CCCCN1CCCCC1C(=O)Nc1c(C)cccc1C.O=C(O)c1cc2ccccc2c(Cc2c(O)c(C(=O)O)cc3ccccc23)c1O [Preparation Example 30, bis(bupivacaine) pamoate]
- Compound concentration: Bupivacaine (5 min): 142.3 µM
- Compound concentration: Pamoic acid (5 min): 75.7 µM
- Compound concentration: Bupivacaine (15 min): 218.8 µM
- Compound concentration: Pamoic acid (15 min): 111.6 µM
- Compound concentration: Bupivacaine (30 min): 233.7 µM
- Compound concentration: Pamoic acid (30 min): 128.5 µM
- Compound concentration: Bupivacaine (1 h): 280.5 µM
- Compound concentration: Pamoic acid (1 h): 135.6 µM
- Compound concentration: Bupivacaine (2 h): 277.3 µM
- Compound concentration: Pamoic acid (2 h): 130.8 µM
- Compound concentration: Bupivacaine (6 h): 287.2 µM
- Compound concentration: Pamoic acid (6 h): 137.9 µM
- Compound concentration: Bupivacaine (24 h): 286.9 µM
- Compound concentration: Pamoic acid (24 h): 140.2 µM
- stability of the suspension (ratio between acid radical and basic group): stable
- solubility: about 0.3 mM
